{"source": "patent US6358885B1", "about": "“Substituted phenylheterocyclic herbicides” (Mississippi State University, priority 1992, dated 2002)", "key": {"[1]": {"tested_on": "barley", "assay": "Test B preemergence/postemergence greenhouse plant response rating 0 to 10", "type": "in vivo, Hordeum vulgare", "conditions": "0 to 10 scale", "outline": "(§1)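 Postemergence treatment of plants two to eighteen cm tall ran alongside preemergence treatment of planted seed, each using compound in a non-phytotoxic solvent.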"}, "[2]": {"tested_on": "bedstraw", "assay": "Test B preemergence/postemergence greenhouse plant response rating 0 to 10", "type": "in vivo, Galium aparine", "conditions": "0 to 10 scale", "outline": "as §1"}, "[3]": {"tested_on": "blackgrass", "assay": "Test B preemergence/postemergence greenhouse plant response rating 0 to 10", "type": "in vivo, Alopecurus myosuroides", "conditions": "0 to 10 scale", "outline": "as §1"}, "[4]": {"tested_on": "cheatgrass", "assay": "Test B preemergence/postemergence greenhouse plant response rating 0 to 10", "type": "in vivo, Bromus secalinus", "conditions": "0 to 10 scale", "outline": "as §1"}, "[5]": {"tested_on": "cocklebur", "assay": "Test B preemergence/postemergence greenhouse plant response rating 0 to 10", "type": "in vivo, Xanthium pensylvanicum", "conditions": "0 to 10 scale", "outline": "as §1"}, "[6]": {"tested_on": "cotton", "assay": "Test B preemergence/postemergence greenhouse plant response rating 0 to 10", "type": "in vivo, Gossypium hirsutum", "conditions": "0 to 10 scale", "outline": "as §1"}, "[7]": {"tested_on": "rice", "assay": "Test B preemergence/postemergence greenhouse plant response rating 0 to 10", "type": "in vivo, Oryza sativa", "conditions": "0 to 10 scale", "outline": "as §1"}, "[8]": {"tested_on": "wild buckwheat", "assay": "Test B preemergence/postemergence greenhouse plant response rating 0 to 10", "type": "in vivo, Polygonum convolvulus", "conditions": "0 to 10 scale", "outline": "as §1"}, "[9]": {"tested_on": "blackgrass", "assay": "Test C preemergence/postemergence greenhouse plant response rating 0 to 100", "type": "in vivo, Alopecurus myosuroides", "conditions": "POSTEMERGENCE; for Plant response rating, Blackgrass: 0 to 100 scale", "outline": "(§2)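 Compounds in non-phytotoxic solvent applied preemergence to sandy loam one day after planting, postemergence at the 1–4 leaf stage, or to ~2.5 cm floodwater over silt loam.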"}, "[10]": {"tested_on": "corn", "assay": "Test C preemergence/postemergence greenhouse plant response rating 0 to 100", "type": "in vivo, Zea mays", "conditions": "POSTEMERGENCE; for Plant response rating, Corn: 0 to 100 scale", "outline": "as §2"}, "[11]": {"tested_on": "giant foxtail", "assay": "Test C preemergence/postemergence greenhouse plant response rating 0 to 100", "type": "in vivo, Setaria faberii", "conditions": "POSTEMERGENCE; for Plant response rating, Giant foxtail: 0 to 100 scale", "outline": "as §2"}, "[12]": {"tested_on": "lambsquarters", "assay": "Test C preemergence/postemergence greenhouse plant response rating 0 to 100", "type": "in vivo, Chenopodium album", "conditions": "POSTEMERGENCE; for Plant response rating Lambsquarters: 0 to 100 scale", "outline": "as §2"}, "[13]": {"tested_on": "rape", "assay": "Test C preemergence/postemergence greenhouse plant response rating 0 to 100", "type": "in vivo, Brassica napus", "conditions": "POSTEMERGENCE; for Plant response rating, Rape: 0 to 100 scale", "outline": "as §2"}, "[14]": {"tested_on": "ryegrass", "assay": "Test C preemergence/postemergence greenhouse plant response rating 0 to 100", "type": "in vivo, Lolium multiflorum", "conditions": "POSTEMERGENCE; for Plant response rating Ryegrass: 0 to 100 scale", "outline": "as §2"}, "[15]": {"tested_on": "sugar beet", "assay": "Test C preemergence/postemergence greenhouse plant response rating 0 to 100", "type": "in vivo, Beta vulgaris", "conditions": "POSTEMERGENCE; for Plant response rating, Sugar beet: 0 to 100 scale", "outline": "as §2"}, "[16]": {"tested_on": "wheat", "assay": "Test C preemergence/postemergence greenhouse plant response rating 0 to 100", "type": "in vivo, Triticum aestivum", "conditions": "POSTEMERGENCE; for Plant response rating, Wheat: 0 to 100 scale", "outline": "as §2"}, "[17]": {"tested_on": "duck salad", "assay": "Test C flood test plant response rating 0 to 100", "type": "in vivo, Heteranthera limosa", "conditions": "for Plant response rating (0 to 100), Duck salad: under POSTEMERGENCE head (flood test species); for Plant response rating Duck salad: flood test species listed under POSTEMERGENCE, 0 to 100 scale", "outline": "as §2"}, "[18]": {"tested_on": "barnyardgrass", "assay": "Test C flood test plant response rating 0 to 100", "type": "in vivo, Echinochloa crus-galli", "conditions": "for Plant response rating (0 to 100), Barnyardgrass: under POSTEMERGENCE head (flood test species); for Plant response rating, Barnyardgrass: flood test species listed under POSTEMERGENCE, 0 to 100 scale", "outline": "as §2"}}}
{"smiles": "C=CCN1C(=O)COc2cc(F)c(-c3nn4c(c3Br)CCCC4)cc21", "note": "[Compound 41]", "values": [{"measurement": "Plant response rating, Barley", "setting": "[1]; POSTEMERGENCE, Rate 50 g/ha", "value": 5}, {"measurement": "Plant response rating, Barley", "setting": "[1]; POSTEMERGENCE, Rate 200 g/ha", "value": 5}, {"measurement": "Plant response rating, Barley", "setting": "[1]; PREEMERGENCE, Rate 50 g/ha", "value": 1}, {"measurement": "Plant response rating, Barley", "setting": "[1]; Rate 200 g/ha, PREEMERGENCE", "value": 1}, {"measurement": "Plant response rating, Bedstraw", "setting": "[2]; POSTEMERGENCE, Rate 50 g/ha", "value": 10}, {"measurement": "Plant response rating, Bedstraw", "setting": "[2]; POSTEMERGENCE, Rate 200 g/ha", "value": 10}, {"measurement": "Plant response rating, Bedstraw", "setting": "[2]; PREEMERGENCE, Rate 50 g/ha", "value": 2}, {"measurement": "Plant response rating, Bedstraw", "setting": "[2]; Rate 200 g/ha, PREEMERGENCE", "value": 10}, {"measurement": "Plant response rating, Blackgrass", "setting": "[3]; POSTEMERGENCE, Rate 50 g/ha", "value": 2}, {"measurement": "Plant response rating, Blackgrass", "setting": "[3]; POSTEMERGENCE, Rate 200 g/ha", "value": 5}, {"measurement": "Plant response rating, Blackgrass", "setting": "[3]; PREEMERGENCE, Rate 50 g/ha", "value": 6}, {"measurement": "Plant response rating, Blackgrass", "setting": "[3]; Rate 200 g/ha, PREEMERGENCE", "value": 7}, {"measurement": "Plant response rating, Cheatgrass", "setting": "[4]; POSTEMERGENCE, Rate 50 g/ha", "value": 3}, {"measurement": "Plant response rating, Cheatgrass", "setting": "[4]; POSTEMERGENCE, Rate 200 g/ha", "value": 5}, {"measurement": "Plant response rating, Cheatgrass", "setting": "[4]; PREEMERGENCE, Rate 50 g/ha", "value": 3}, {"measurement": "Plant response rating, Cheatgrass", "setting": "[4]; Rate 200 g/ha, PREEMERGENCE", "value": 5}, {"measurement": "Plant response rating, Cocklebur", "setting": "[5]; POSTEMERGENCE, Rate 50 g/ha", "value": 10}, {"measurement": "Plant response rating, Cocklebur", "setting": "[5]; POSTEMERGENCE, Rate 200 g/ha", "value": 10}, {"measurement": "Plant response rating, Cocklebur", "setting": "[5]; PREEMERGENCE, Rate 50 g/ha", "value": 2}, {"measurement": "Plant response rating, Cocklebur", "setting": "[5]; Rate 200 g/ha, PREEMERGENCE", "value": 5}, {"measurement": "Plant response rating, Cotton", "setting": "[6]; POSTEMERGENCE, Rate 50 g/ha", "value": 10}, {"measurement": "Plant response rating, Cotton", "setting": "[6]; POSTEMERGENCE, Rate 200 g/ha", "value": 10}, {"measurement": "Plant response rating, Cotton", "setting": "[6]; PREEMERGENCE, Rate 50 g/ha", "value": 4}, {"measurement": "Plant response rating, Cotton", "setting": "[6]; Rate 200 g/ha, PREEMERGENCE", "value": 2}, {"measurement": "Plant response rating, Rice", "setting": "[7]; POSTEMERGENCE, Rate 50 g/ha", "value": 6}, {"measurement": "Plant response rating, Rice", "setting": "[7]; PREEMERGENCE, Rate 50 g/ha", "value": 0}, {"measurement": "Plant response rating, Rice", "setting": "[7]; Rate 200 g/ha, POSTEMERGENCE", "value": 7}, {"measurement": "Plant response rating, Rice", "setting": "[7]; Rate 200 g/ha, PREEMERGENCE", "value": 0}, {"measurement": "Plant response rating, Wild buckwheat", "setting": "[8]; POSTEMERGENCE, Rate 50 g/ha", "value": 10}, {"measurement": "Plant response rating, Wild buckwheat", "setting": "[8]; PREEMERGENCE, Rate 50 g/ha", "value": 10}, {"measurement": "Plant response rating, Wild buckwheat", "setting": "[8]; Rate 200 g/ha, POSTEMERGENCE", "value": 10}, {"measurement": "Plant response rating, Wild buckwheat", "setting": "[8]; Rate 200 g/ha, PREEMERGENCE", "value": 10}, {"measurement": "Plant response rating, Blackgrass", "setting": "[9]; 62 g/ha", "value": 50}, {"measurement": "Plant response rating, Blackgrass", "setting": "[9]; 125 g/ha", "value": 60}, {"measurement": "Plant response rating (0 to 100), Blackgrass", "setting": "[9]; Rate 16 g/ha", "value": 40}, {"measurement": "Plant response rating (0 to 100), Blackgrass", "setting": "[9]; Rate 31 g/ha", "value": 40}, {"measurement": "Plant response rating, Corn", "setting": "[10]; 62 g/ha", "value": 40}, {"measurement": "Plant response rating, Corn", "setting": "[10]; 125 g/ha", "value": 50}, {"measurement": "Plant response rating (0 to 100), Corn", "setting": "[10]; Rate 16 g/ha", "value": 40}, {"measurement": "Plant response rating (0 to 100), Corn", "setting": "[10]; Rate 31 g/ha", "value": 40}, {"measurement": "Plant response rating, Giant foxtail", "setting": "[11]; 62 g/ha", "value": 30}, {"measurement": "Plant response rating, Giant foxtail", "setting": "[11]; 125 g/ha", "value": 50}, {"measurement": "Plant response rating (0 to 100), Giant foxtail", "setting": "[11]; Rate 16 g/ha", "value": 20}, {"measurement": "Plant response rating (0 to 100), Giant foxtail", "setting": "[11]; Rate 31 g/ha", "value": 30}, {"measurement": "Plant response rating Lambsquarters", "setting": "[12]; 62 g/ha", "value": 100}, {"measurement": "Plant response rating Lambsquarters", "setting": "[12]; 125 g/ha", "value": 100}, {"measurement": "Plant response rating (0 to 100), Lambsquarters", "setting": "[12]; Rate 16 g/ha", "value": 85}, {"measurement": "Plant response rating (0 to 100), Lambsquarters", "setting": "[12]; Rate 31 g/ha", "value": 100}, {"measurement": "Plant response rating, Rape", "setting": "[13]; 62 g/ha", "value": 100}, {"measurement": "Plant response rating, Rape", "setting": "[13]; 125 g/ha", "value": 100}, {"measurement": "Plant response rating (0 to 100), Rape", "setting": "[13]; Rate 16 g/ha", "value": 95}, {"measurement": "Plant response rating (0 to 100), Rape", "setting": "[13]; Rate 31 g/ha", "value": 100}, {"measurement": "Plant response rating Ryegrass", "setting": "[14]; 62 g/ha", "value": 30}, {"measurement": "Plant response rating Ryegrass", "setting": "[14]; 125 g/ha", "value": 40}, {"measurement": "Plant response rating (0 to 100), Ryegrass", "setting": "[14]; Rate 16 g/ha", "value": 10}, {"measurement": "Plant response rating (0 to 100), Ryegrass", "setting": "[14]; Rate 31 g/ha", "value": 20}, {"measurement": "Plant response rating, Sugar beet", "setting": "[15]; 62 g/ha", "value": 100}, {"measurement": "Plant response rating, Sugar beet", "setting": "[15]; 125 g/ha", "value": 100}, {"measurement": "Plant response rating (0 to 100), Sugar beet", "setting": "[15]; Rate 16 g/ha", "value": 100}, {"measurement": "Plant response rating (0 to 100), Sugar beet", "setting": "[15]; Rate 31 g/ha", "value": 100}, {"measurement": "Plant response rating, Wheat", "setting": "[16]; 62 g/ha", "value": 50}, {"measurement": "Plant response rating, Wheat", "setting": "[16]; 125 g/ha", "value": 60}, {"measurement": "Plant response rating (0 to 100), Wheat", "setting": "[16]; Rate 16 g/ha", "value": 40}, {"measurement": "Plant response rating (0 to 100), Wheat", "setting": "[16]; Rate 31 g/ha", "value": 50}, {"measurement": "Plant response rating (0 to 100), Duck salad", "setting": "[17]; Rate 16 g/ha", "value": 0}, {"measurement": "Plant response rating (0 to 100), Duck salad", "setting": "[17]; Rate 31 g/ha", "value": 10}, {"measurement": "Plant response rating Duck salad", "setting": "[17]; 62 g/ha", "value": 30}, {"measurement": "Plant response rating Duck salad", "setting": "[17]; 125 g/ha", "value": 30}, {"measurement": "Plant response rating (0 to 100), Barnyardgrass", "setting": "[18]; Rate 16 g/ha", "value": 90}, {"measurement": "Plant response rating (0 to 100), Barnyardgrass", "setting": "[18]; Rate 31 g/ha", "value": 100}, {"measurement": "Plant response rating, Barnyardgrass", "setting": "[18]; 62 g/ha", "value": 100}, {"measurement": "Plant response rating, Barnyardgrass", "setting": "[18]; 125 g/ha", "value": 100}]}
